Values quoted from earlier work in patent publication US20240156825A1, “USE OF SELECTIVE VEGFR2 AND FGFR1 INHIBITORS” (Fountain Therapeutics Inc., priority 2022, published 2024).
Read-outs that look alike come from different tables or passages of the source.

How the values were obtained:
[1] = biological target: VEGFR2 (Homo sapiens, UniProt P35968); conditions: reported IC50 to VEGFR2, read-out: VEGFR2 IC50_μM, cited from earlier work
[2] = system: any gene target; conditions: next lowest IC50 value to any gene target, read-out: Min IC50_μM, cited from earlier work
[3] = Table 3, selective inhibitors of VEGFR2

VEGFR2, sequence (P35968 20-1356, species assumed): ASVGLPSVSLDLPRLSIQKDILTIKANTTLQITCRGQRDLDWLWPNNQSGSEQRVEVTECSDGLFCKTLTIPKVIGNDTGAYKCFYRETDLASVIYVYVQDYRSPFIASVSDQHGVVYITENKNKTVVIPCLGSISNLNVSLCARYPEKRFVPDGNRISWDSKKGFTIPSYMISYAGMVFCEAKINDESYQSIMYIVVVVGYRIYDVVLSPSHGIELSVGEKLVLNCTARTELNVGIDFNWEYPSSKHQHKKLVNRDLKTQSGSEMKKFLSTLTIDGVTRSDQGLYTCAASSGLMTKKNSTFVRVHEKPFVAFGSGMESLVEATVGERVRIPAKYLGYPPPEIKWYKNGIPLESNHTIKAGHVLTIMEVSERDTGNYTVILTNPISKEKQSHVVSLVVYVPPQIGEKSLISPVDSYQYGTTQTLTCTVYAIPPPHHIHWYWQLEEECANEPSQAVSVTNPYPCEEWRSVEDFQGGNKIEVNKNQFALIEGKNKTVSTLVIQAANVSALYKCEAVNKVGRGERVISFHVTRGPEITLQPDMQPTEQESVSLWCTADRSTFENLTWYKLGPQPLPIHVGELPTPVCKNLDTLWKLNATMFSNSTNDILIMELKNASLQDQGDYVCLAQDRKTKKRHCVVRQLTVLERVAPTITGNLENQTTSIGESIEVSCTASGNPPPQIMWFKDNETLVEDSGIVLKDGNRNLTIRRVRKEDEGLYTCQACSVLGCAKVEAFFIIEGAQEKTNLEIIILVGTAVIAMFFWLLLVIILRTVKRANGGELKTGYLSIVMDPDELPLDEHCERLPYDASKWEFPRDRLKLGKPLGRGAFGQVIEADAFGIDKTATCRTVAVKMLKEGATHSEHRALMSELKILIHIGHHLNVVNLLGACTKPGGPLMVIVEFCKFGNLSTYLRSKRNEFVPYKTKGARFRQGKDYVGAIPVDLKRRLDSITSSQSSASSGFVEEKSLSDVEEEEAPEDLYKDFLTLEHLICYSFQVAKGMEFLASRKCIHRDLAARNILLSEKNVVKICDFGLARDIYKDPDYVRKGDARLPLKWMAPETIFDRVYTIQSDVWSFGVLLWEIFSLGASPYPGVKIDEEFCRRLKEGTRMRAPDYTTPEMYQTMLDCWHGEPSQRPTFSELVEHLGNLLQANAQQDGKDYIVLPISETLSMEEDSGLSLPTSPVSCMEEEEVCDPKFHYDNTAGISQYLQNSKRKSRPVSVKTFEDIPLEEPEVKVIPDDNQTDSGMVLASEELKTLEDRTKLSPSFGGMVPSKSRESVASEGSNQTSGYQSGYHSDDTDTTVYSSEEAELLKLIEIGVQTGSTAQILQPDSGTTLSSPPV

| SMILES | IC50 [1, 3] | IC50 ([2]; Table 3) | IC50 [1] | IC50 [2] |
| --- | --- | --- | --- | --- |
| COc1cc2c(Nc3ccc(Br)cc3F)ncnc2cc1OCCC1CCNCC1 [compound 5329054] | 40 nM | 40 nM |  |  |
| COc1cc2c(Nc3ccc(Cl)cc3F)ncnc2cc1OC[C@@H]1CCCN(C)C1 [compound 5329055] |  |  | 5 nM | 80 nM |
| COc1cc2c(Nc3ccc(Br)cc3F)ncnc2cc1OC[C@@H]1CCCN(C)C1 [compound 5329056] |  |  | 1 nM | 60 nM |
| COc1cc2c(Nc3ccc(Br)cc3F)ncnc2cc1OC[C@H]1CCCN(C)C1 [compound 5329057] |  |  | 10 nM | 40 nM |
| COc1cccc(-c2ccc3c(c2)NC(=O)/C3=C\c2[nH]c3c(c2CCC(=O)O)CCCC3)c1 [compound 5329169] |  |  | 70 nM | 100 nM |
| c1ccc(-c2cnn3cc(-c4ccc(OCCN5CCOCC5)cc4)cnc23)cc1 [compound 5329447] |  |  | 9 nM | 32 nM |
| OCCCNc1cncc(-c2cncc(Nc3cccc(Cl)c3)n2)c1 [compound 5330387] | 5 nM | 5 nM |  |  |
| OCCCCNc1cncc(-c2cncc(Nc3cccc(Cl)c3)n2)c1 [compound 5330388] |  |  | 63 nM | 2360 nM |
| Clc1cccc(Nc2cncc(-c3cncc(NCCCn4cccn4)c3)n2)c1 [compound 5330391] |  |  | 93.3 nM | 326 nM |
| Clc1cccc(Nc2cncc(-c3cncc(NCCCn4cncn4)c3)n2)c1 [compound 5330392] |  |  | 67 nM | 153 nM |
| COc1ccccc1/C(C)=C/c1coc2nc(N)nc(N)c12 [compound 6477203] |  |  | 10300 nM | 12800 nM |
| COc1cc2c(Oc3ccc(Nc4ccc(C(C)(C)C)cc4)cc3)ccnc2cc1OCCNCCO [compound 9850161] | 69 nM | 69 nM |  |  |
| COc1cc2c(Nc3ccc(Br)c(Cl)c3F)ncnc2cc1OC[C@@H]1CN2CCOC[C@H]2CO1 [compound 9937516] | 50 nM | 50 nM |  |  |
| COc1cc2c(Nc3ccc(F)c(Cl)c3F)ncnc2cc1OC[C@H]1CN2CCOC[C@H]2CO1 [compound 10028639] | 50 nM | 50 nM |  |  |
| COc1cc2c(Nc3ccc(Cl)c(Cl)c3F)ncnc2cc1OC[C@H]1CN2CCOC[C@H]2CO1 [compound 10029284] | 50 nM | 50 nM |  |  |
| COc1cc2c(Nc3cc(Cl)c(Br)cc3F)ncnc2cc1OC[C@H]1CN2CCOC[C@H]2CO1 [compound 10030541] | 50 nM | 50 nM |  |  |
| CC(C)(Nc1nc(NO)nc(Nc2ccc3ncsc3c2)n1)c1ccccc1 [compound 10249989] |  |  | 40 nM | 420 nM |
| COc1cc2c(Nc3ccc(Cl)c(Cl)c3)ncnc2cc1OC1C[C@@H]2CN(C)C[C@@H]2C1 (stereo partly shown) [compound 10253661] | 50 nM | 50 nM |  |  |
| Cc1nc2cc(N(C)c3ccnc(Nc4cccc(S(N)(=O)=O)c4)n3)ccc2n1C [compound 10273854] |  |  | 17 nM | 9000 nM |
| COc1cc2c(Nc3cc(Cl)c(Cl)cc3F)ncnc2cc1OC[C@H]1CN2CCOC[C@H]2CO1 [compound 10346203] | 50 nM | 50 nM |  |  |
| COc1cc2c(Nc3ccc(Br)c(Cl)c3F)ncnc2cc1OC[C@H]1CN2CCOC[C@H]2CO1 [compound 10370400] | 50 nM | 50 nM |  |  |

| SMILES | IC50 [1, 3] | IC50 ([2]; Table 3) | IC50 [1] | IC50 [2] |
| --- | --- | --- | --- | --- |
| O=C1N/C=C/c2ccc(c(Br)c2)Oc2cc(cc(Br)c2O)CCNC(=O)/C(=N/O)Cc2ccc(c(Br)c2)Oc2cc(cc(Br)c2O)C/C1=N\O [compound 10396070] |  |  | 1300 nM | 1500 nM |
| COc1cc2c(Nc3ccc(Cl)c(Cl)c3)ncnc2cc1OCc1cscn1 [compound 10455540] | 50 nM | 50 nM |  |  |
| COCCNC(=O)c1cccc2cc(Oc3ccnc4cc(OC)c(C(N)=O)cc34)ccc12 [compound 11224593] |  |  | 22 nM | 233 nM |
| COCCNC(=O)c1cccc2cc(Oc3ccnc4cc(OC)c(OC)cc34)ccc12 [compound 11362483] |  |  | 12 nM | 73 nM |
| COc1cc2nccc(Oc3ccc4c(NC(=O)c5cccc(C(F)(F)F)c5)nn(C)c4c3)c2cc1OC [compound 11398307] |  |  | 1 nM | 45 nM |
| COc1cc2nccc(Oc3ccc4c(C(N)=O)cccc4c3)c2cc1OC [compound 11474276] |  |  | 0.891 nM | 88 nM |
| COc1cc(C2=C(c3c[nH]c4ccccc34)C(=O)NC2=O)cc(OC)c1OC [compound 11530963] |  |  | 2.5 nM | 5 nM |
| O=C(NC1CC1)c1cc(NCc2cnc(Nc3ccccn3)s2)c(F)cc1F [compound 11632737] |  |  | 23 nM | 200 nM |
| COc1cc2nccc(Oc3ccc4c(C(=O)NC5CC5)cccc4c3)c2cc1C(N)=O [compound 11750694] |  |  | 0.37 nM | 185 nM |
| O=C(Nc1cccc(-c2cn3ccnc3c(NCc3ccncc3)n2)c1)Nc1cccc(C(F)(F)F)c1 [compound 11755812] |  |  | 33 nM | 35 nM |
| Cn1ccc2ncnc(Oc3ccc(NC(=O)Nc4cccc(C(F)(F)F)c4)c(F)c3)c21 [compound 15949613] |  |  | 0.033 nM | 15 nM |
| Cc1ccc(NC(=O)c2ccc(C(C)(C)C)s2)cc1Nc1nc2ccccc2n1-c1cc(N)ncn1 [compound 15949617] |  |  | 4 nM | 4 nM |
| Cc1ccc(NC(=O)c2cc(C3CC3)[nH]n2)cc1Nc1nc2ccccc2n1-c1cc(N)ncn1 [compound 15949619] |  |  | 48 nM | 50 nM |
| COc1ccc(Nc2ncc3c(n2)-c2ccccc2NC(=O)C3)cc1O [compound 16730105] |  |  | 73 nM | 640 nM |
| COc1cc2c(Nc3ccc(Cl)cc3F)ncnc2cc1OCCCN1CCN(C)CC1 [compound 21701597] |  |  | 20 nM | 50 nM |
| Cc1[nH]nc2cc(N(C)c3ccnc(Nc4cccc(S(N)(=O)=O)c4)n3)ccc12 [compound 21956341] |  |  | 0.6 nM | 700 nM |
| COc1cc2c(Nc3ccc(Br)cc3F)ncnc2cc1OC/C=C/CN1CCCC1 [compound 22478260] |  |  | 8 nM | 30 nM |
| COc1cc2c(Nc3ccc(Cl)cc3F)ncnc2cc1OC/C=C/CN1CCCC1 [compound 22478297] | 40 nM | 40 nM |  |  |
| COc1cc2c(Nc3ccc(Cl)cc3F)ncnc2cc1OCC1CCN(C)CC1 [compound 23133320] |  |  | 15 nM | 50 nM |
| COc1cc2nccc(Oc3ccc4c(C(=O)NC5CCCC5)cccc4c3)c2cc1OC [compound 24822599] |  |  | 9 nM | 620 nM |
| COc1cc2nccc(Oc3ccc4c(C(=O)NC(C)C)cccc4c3)c2cc1OC [compound 24822600] |  |  | 5 nM | 190 nM |

| SMILES | IC50 [1, 3] | IC50 ([2]; Table 3) | IC50 [1] | IC50 [2] |
| --- | --- | --- | --- | --- |
| COc1cc2nccc(Oc3ccc4c(C(=O)NC(C)(C)C)cccc4c3)c2cc1OC [compound 24823091] |  |  | 1500 nM | 3700 nM |
| COc1cc2ncnc(Oc3ccc4c(C(=O)NC5CC5)cccc4c3)c2cc1OC [compound 24823093] |  |  | 2.88 nM | 360 nM |
| COc1cc2nccc(Oc3ccc4c(C(=O)NCC(F)(F)F)cccc4c3)c2cc1OC [compound 24823250] |  |  | 3.8 nM | 16 nM |
| COCCNC(=O)c1cccc2cc(Oc3ncnc4cc(OC)c(OC)cc34)ccc12 [compound 24823252] |  |  | 314 nM | 385 nM |
| COc1cc2nccc(Oc3ccc4c(C(=O)NC5CCC5)cccc4c3)c2cc1OC [compound 24824448] |  |  | 1.3 nM | 440 nM |
| COc1cc(C2=C(c3c[nH]c4ccccc34)CNC2=O)cc(OC)c1OC [compound 24894117] |  |  | 31 nM | 37 nM |
| COc1cc(C2=C(c3cn(COCC[Si](C)(C)C)c4ccccc34)CNC2=O)cc(OC)c1OC [compound 24894886] |  |  | 3100 nM | 4500 nM |
| COCn1cc(C2=C(c3cc(OC)c(OC)c(OC)c3)C(=O)NC2)c2ccccc21 [compound 24894887] |  |  | 2300 nM | 3200 nM |
| COc1cc(C2=C(c3cn(COC(C)(C)C)c4ccccc34)CNC2=O)cc(OC)c1OC [compound 24894992] | 4400 nM | 4400 nM |  |  |
| COc1cc(C2=C(c3cn(COCc4ccccc4)c4ccccc34)CNC2=O)cc(OC)c1OC [compound 24894993] |  |  | 1600 nM | 1700 nM |
| COc1cc(C2=C(c3cn(COC(C)C)c4ccccc34)CNC2=O)cc(OC)c1OC [compound 24894996] |  |  | 5200 nM | 5300 nM |
| COc1cc(C2=C(c3cn(COc4ccccc4)c4ccccc34)CNC2=O)cc(OC)c1OC [compound 24894997] |  |  | 1500 nM | 1700 nM |
| C[C@@H](Nc1ncnc2[nH]c(-c3ccc(CN4CCN(CCCC(=O)NO)CC4)cc3)cc12)c1ccccc1 [compound 24900378] |  |  | 100 nM | 1000 nM |
| C[C@@H](Nc1ncnc2[nH]c(-c3ccc(CN4CCN(CCCCC(=O)NO)CC4)cc3)cc12)c1ccccc1 [compound 24900441] |  |  | 100 nM | 100 nM |
| C[C@@H](Nc1ncnc2[nH]c(-c3ccc(CN4CCN(CCCCCC(=O)NO)CC4)cc3)cc12)c1ccccc1 [compound 24900442] |  |  | 100 nM | 100 nM |
| C[C@@H](Nc1ncnc2[nH]c(-c3ccc(CN4CCN(CCCCCCC(=O)NO)CC4)cc3)cc12)c1ccccc1 [compound 24900443] |  |  | 100 nM | 100 nM |
| C[C@@H](Nc1ncnc2[nH]c(-c3ccc(OCCCC(=O)NO)cc3)cc12)c1ccccc1 [compound 24900506] |  |  | 100 nM | 100 nM |
| C[C@@H](Nc1ncnc2[nH]c(-c3ccc(OCCCCC(=O)NO)cc3)cc12)c1ccccc1 [compound 24900507] |  |  | 100 nM | 100 nM |
| C[C@@H](Nc1ncnc2[nH]c(-c3ccc(NC(=O)CCCC(=O)NO)cc3)cc12)c1ccccc1 [compound 24900574] |  |  | 100 nM | 100 nM |
| C[C@@H](Nc1ncnc2[nH]c(-c3ccc(C(=O)NCCNCCCCCC(=O)NO)cc3)cc12)c1ccccc1 [compound 24900641] |  |  | 100 nM | 100 nM |
